Measured values reported in patent US10912741B2, “Prevention of liver cancer with safranal-based formulations” (United Arab Emirates University, priority 2019, dated 2021).

Tests used:
[1] = tested on: caspase-cleaved fragment of cytokeratin18 (M30 CytoDeath); test: M30 CytoDeath staining of liver sections (early apoptosis); assay type: in vivo, albino Wistar rats
Procedure: The experimental hepatocarcinogenesis model was developed according to a protocol by Espandiaria et al. that was adapted for our purposes. To initiate and promote hepatocarcinogenesis, diethylnitrosamine (DEN) and 2-acetylaminofluorene (2-AAF) were used, respectively. For hepatocarcinogenesis initiation in this model, a single DEN dose (200 mg/kg b.wt.) dissolved in saline was injected intraperitoneally. After initiation, all rats underwent one period of 5-days fasting, as mitotic proliferative stimuli. To promote hepatocarcinogenesis, 2-acetylaminofluorene (2-AAF) was introduced in the form of six daily intragastric doses (30 mg/kg in 1% Tween 80); two weeks after DEN treatment.
Safranal at doses of 25 mg/kg by weight (b.wt.) and 50 mg/kg b.wt, was administrated orally to rats. These doses have been reported to suppress chemically-induced oxidative damage in rats. […]
TUNEL assay was performed for the purpose of assessing apoptosis. […] DNA fragmentation, a key indicator of apoptosis, is detected using this kit. […]
For immunohistochemical staining, mounted sections were immersed in sodium citrate buffer (0.1 M, pH 6) and placed in a water bath for 15 minutes to unmask antigen epitopes. […] Ten fields were randomly selected to quantify positive cells, in individual samples (400×). […]

catalase (CAT) = test: Catalase activity in liver homogenate, DEN/2-AAF hepatocarcinogenesis model; assay type: in vivo, albino Wistar rats; details: mean±SEM, 8 rats
Procedure: The experimental hepatocarcinogenesis model was developed according to a protocol by […] et al. that was adapted for our purposes. To initiate and promote hepatocarcinogenesis, diethylnitrosamine (DEN) and 2-acetylaminofluorene (2-AAF) were used, respectively. For hepatocarcinogenesis initiation in this model, a single DEN dose (200 mg/kg b.wt.) dissolved in saline was injected intraperitoneally. After initiation, all rats underwent one period of 5-days fasting, as mitotic proliferative stimuli. To promote hepatocarcinogenesis, 2-acetylaminofluorene (2-AAF) was introduced in the form of six daily intragastric doses (30 mg/kg in 1% Tween 80); two weeks after DEN treatment. […] at doses of 25 mg/kg by weight (b.wt.) and 50 mg/kg b.wt, was administrated orally to rats. These doses have been reported to suppress chemically-induced oxidative damage in rats. A total of 40 adult male albino Wistar rats were randomly divided into […] (n=8) and were subjected to different treatments. Group 1 (control) was orally administered distilled water (5 ml/kg b.wt.) throughout the experimental duration and were injected with a single dose of saline. Group 2 ([…] only) was subjected to a safranal dose (50 mg/kg b.wt.) through oral administration for the duration of the experimental period. Hepatocarcinogenesis was induced by DEN and promoted by 2-AAF, as reported previously, in group 3 (HCC). […] Glutathione (GSH) content was determined by analyzing liver homogenates, according to the method of Van Dooran et al. The assay depends on measuring yellow 5-thiol-2-nitrobenzoate absorbance at 412 nm. Glutathione-S-transferase (GST) activity was determined using the method of Habig et al. GST catalyzes the conjugation of GSH thiol group with 1-Chloro-2,4-dinitrobenzene (CDNB), which can be measured by determining the increase in absorbance at 340 nm. […] CAT decomposes hydrogen peroxide (H2O2) to oxygen and water; therefore, the activity of CAT was evaluated according to by the exponential decomposition of H2O2 at 240 nm. […] UV-160-Shimadzu recording spectrophotometer was used to record absorbances. […]

CC1=C(C=O)C(C)(C)CC=C1 [Safranal, 2,6,6-trimethylcyclohexa-1,3-diene-1-carbaldehyde] was tested, and the “number of M30 CytoDeath-positive cells” value ([1]; low/high doses of safranal in animals exposed to DEN, compared to group 3) was “significant increase in the number of both TUNEL- and M30 CytoDeath-positive cells”, the “number of M30 CytoDeath-positive cells” value ([1]; safranal only (group 2), compared to control group) was “did not exhibit a notable change” and the CAT (catalase (CAT); HCC (DEN/2-AAF) rats + safranal high dose 50 mg/kg b.wt. oral, 12 weeks) was 145.4512 ± 4.57 unit/mg protein. The CAT (catalase (CAT); HCC (DEN/2-AAF) rats + safranal low dose 25 mg/kg b.wt. oral, 12 weeks) was 141.38 ± 0.91 unit/mg protein and the CAT (catalase (CAT); safranal alone 50 mg/kg b.wt. oral, no DEN (group 2)) was 143.75 ± 1.2 unit/mg protein.
